From patent US4105766A, “4,5-Dihydro-5-oxopyrazolo[1,5-a]quinazoline-3-carboxylic acid derivatives” (Sterling Drug Inc., priority 1977, dated 1978)

Assays:
[1] = system: passive cutaneous anaphylaxis; assay: passive cutaneous anaphylaxis test in rats (anti-allergy); format: in vivo; conditions: rats; for inhibition in vivo at 100 mg/kg / ED50: Rattus norvegicus, po; for inhibition in vivo at 100 mg/kg / % Inhibition (passive cutaneous anaphylaxis): standard dose of 100 mg./kg. (p.o.); for R (ratio, passive cutaneous anaphylaxis): R 1.0 to 2.0 inactive, 2.0 to 4.0 weakly active, 4.0 to 8.0 moderately active, >8.0 strongly active; for ED50: passive cutaneous anaphylaxis, read-out: Average Effective Dose50 (AED50)
Description: (1) The inhibition of carrageenin-induced foot edema test essentially described by Winter et al., Proc. Soc. Exp. Biol. and Med. 111, 544 (1962) as modified by Van Arman et al., J. Pharmacol. Exptl. Therap. 150, 328 (1965) and (2) a modification of the inhibition of adjuvant-induced arthritis test described by Pierson, J. Chronic Diseases 16, 863 (1963) and Glenn et al., Am. J. Vet. Res. 26, 1180 (1965), which were used to establish the anti-inflammatory activities of the compounds; and the passive cutaneous anaphylaxis test described by Mielens et al., Int. Arch. Allergy Appl. Immunol. 47, 633-649 (1974) which was used to establish the anti-allergy activity of the compounds.
Results are expressed either in terms of % Inhibition at a standard dose of 100 mg./kg. (p.o.), as an Average Effective Dose50 (AED50), or as a ratio, R, where: [formula]

[2] = system: carrageenin-induced foot edema; assay: carrageenin-edema test (CE), inhibition of carrageenin-induced foot edema in rats; format: in vivo; conditions: Rattus norvegicus, read-out: % Inhibition C.E.; for inhibition in vivo at 80 µmol/kg: dose .08 mmole/kg.; for inhibition in vivo at 324 µmol/kg: dose .324 mmole/kg.
Description: (1) The inhibition of carrageenin-induced foot edema test essentially described by Winter et al., Proc. Soc. […] Therap. […] J. Vet. […] Arch. Allergy Appl. Immunol.
Here, and elsewhere in other tables which follow, compounds are identified by the Example number above where their preparations are recorded. For purposes of comparison, data are also given for the reference compound 4,5-dihydro-5-oxopyrazolo[1,5-a]quinazoline-3-carboxylic acid disclosed by Wright, ibid., identified here and elsewhere in the tables which follow as "Ref.".

[3] = system: adjuvant-induced arthritis; assay: adjuvant arthritis test (AA), inhibition of adjuvant-induced arthritis in rats; format: in vivo; conditions: Rattus norvegicus; for inhibition in vivo at 324 µmol/kg: dose .324 mmole/kg.; for inhibition in vivo at 80 µmol/kg: dose .08 mmole/kg.
[4] = system: Trypanosoma brucei; assay: trypanosomicidal test in infected mice; format: in vivo, Trypanosoma brucei (in mice); conditions: i.p.
Description: Trypanosomicidal activity of the compounds of the invention was determined in a test procedure in which albino female mice (Taconic Farms) weighing 20± 2 g. were intraperitoneally injected 3 days prior to initial medication with 0.2 ml. of an inoculum containing 500 Trypanosoma brucei organisms in 0.85% sterile saline. Blood for infecting purposes was obtained via cardiac puncture of a donor mouse previously determined to have a high parasitemia. Test medications to groups of five mice were started 3 days after infection at a time when the animals had begun to develop a rising blood parasitemia. […] Groups of 10 non-medicated infected control mice and five animals medicated with the reference compound LAMPIT® (tetrahydro-3-methyl-4-[(5-nitrofurfurylidene)amino]-2H-1,4-thiazine-1,1-dioxide) were included in each screening test. The test system is based on the survival of animals medicated with the test compound, and those mice alive at the end of 28 days post-infection were recorded as cured. (Non-medicated infected control mice rarely succumb later than 5 to 6 days post-innoculation with T. brucei). A compound was considered active if at least two of five animals survived until the termination of a 28 day post-infection holding period.
(§1) Results obtained in amoebacidal and trypanosomicidal tests on the compounds of the invention against E. criceti and T. brucei, respectively, are given in the table below. Results are expressed as a ratio: Number of Animals Cleared/Total Test Animals.

[5] = system: Entamoeba criceti; assay: amoebacidal test in naturally infected hamsters; format: in vivo, Entamoeba criceti (in hamsters)
Description: Anti-parasitic activity of the compounds was shown by the following test procedures. Amoebacidal activity was shown in a test in which 100 or more female hamsters (Sprague-Dawley) weighing between 90 and 130 g. were individually weighed and sorted into groups of five animals each averaging either 100 ± 10 g. or 120 ± 10g. The test compounds (at least 200 mg.) and a reference standard, N,N'-(phenylenedimethylene)-bis[α,α-dichloro-N-(2-ethoxyethyl)acetamide] (FALMONOX®), were dissolved or suspended in 10 percent gelatin. The test compounds and the reference standard were administered to the naturally infected hamsters intragastrically via syringe in equally subdivided doses of 0.5 ml. […] On the fourth day each of the test animals and the five hamsters receiving the reference drug, as well as non-medicated infected control animals, were killed and a portion of the mucus from the wall of the cecum was mixed in a drop of 0.85% sodium chloride. The preparation was examined under low power (100 ×) of a compound microscope for the presence of motile trophozoites of Entamoeba criceti, and when a preparation was determined to be free from trophozoites, a second specimen was taken from another part of the cecum of the same animal and thoroughly examined before the animal was declared cleared of amoebas. […] Results were recorded as a fraction: number of hamsters cleared/number of hamsters treated.
as §1

Compound: CCOC(=O)c1cnn2c3cc(C)ccc3c(=O)n(C)c12 [Example 2G]
- inhibition in vivo at 100 mg/kg [1]: 46%

Compound: CC(C)=CCn1c(=O)c2ccccc2n2ncc(C(=O)O)c12 [Example 7E]
- inhibition in vivo at 80 µmol/kg [2]: 3%
- inhibition in vivo at 324 µmol/kg [2]: 4%
- inhibition in vivo at 324 µmol/kg [3]: 34%
- R (ratio, passive cutaneous anaphylaxis) [1]: 3.8

Compound: CCn1c(=O)c2ccccc2n2ncc(C(=O)O)c12 [Example 7A]
- inhibition in vivo at 324 µmol/kg [2]: 33%
- inhibition in vivo at 80 µmol/kg [3]: 27%
- ED50 [1]: 12 mg/kg
- inhibition in vivo at 100 mg/kg [1]: 81%

Compound: O=C(O)c1cnn2c3ccccc3c(=O)n(CC3CC3)c12 [Example 7C]
- inhibition in vivo at 80 µmol/kg [2]: 25%
- inhibition in vivo at 324 µmol/kg [2]: 33%
- inhibition in vivo at 324 µmol/kg [3]: 74%
- R (ratio, passive cutaneous anaphylaxis) [1]: 6.5

Compound: CCOC(=O)c1cnn2c3ccccc3c(=O)n(C)c12 [Example 2, ethyl 4-methyl-4,5-dihydro-5-oxopyrazolo[1,5-a]quinazoline-3-carboxylate]
- No. Cleared/No. Tested, Tryp. ([4]; dose 50 mg./kg. p.o.): 0/5
- No. Cleared/No. Tested, Tryp. ([4]; dose 200 mg./kg. p.o.): 2/5

Compound: Cn1c(=O)c2ccc(Cl)cc2n2ncc(C(=O)O)c12 [Example 7M]
- No. Cleared/No. Tested, Tryp. ([4]; dose 200 mg./kg. p.o.): 5/5
- inhibition in vivo at 100 mg/kg [1]: 56%

Compound: C=CCn1c(=O)c2cc(F)ccc2n2ncc(C(=O)O)c12 [Example 7Q]
- inhibition in vivo at 80 µmol/kg [2]: 0%
- inhibition in vivo at 324 µmol/kg [2]: 4%
- inhibition in vivo at 324 µmol/kg [3]: 72%

Compound: CCOC(=O)c1cnn2c3ccc(C)cc3c(=O)n(C)c12 [Example 2F]
- No. Cleared/No. Tested, Amoeba ([5]; dose 25 mg./kg.): 0/5
- No. Cleared/No. Tested, Amoeba ([5]; dose 100 mg./kg.): 5/5
- inhibition in vivo at 100 mg/kg [1]: 6%
- % Inhibition (passive cutaneous anaphylaxis) [1]: Inac.

Compound: CCOC(=O)c1cnn2c3ccc(F)cc3c(=O)n(C)c12 [Example 2K]
- R (ratio, passive cutaneous anaphylaxis) [1]: 3.0

Compound: Cc1ccc2c(c1)c(=O)[nH]c1c(C(=O)O)cnn12 [Example 7F]
- inhibition in vivo at 100 mg/kg [1]: 65%

Compound: C=CCn1c(=O)c2ccccc2n2ncc(C(=O)O)c12 [Example 8, sodium 4-(2-propenyl)-4,5-dihydro-5-oxopyrazolo[1,5-a]quinazoline-3-carboxylate]
- inhibition in vivo at 90 µmol/kg ([2]; dose .09 mmole/kg.): 20%
- inhibition in vivo at 360 µmol/kg ([2]; dose .36 mmole/kg.): 31%
- inhibition in vivo at 20 µmol/kg ([3]; dose .02 mmole/kg.): 29%
- inhibition in vivo at 80 µmol/kg [3]: 47%
- inhibition in vivo at 324 µmol/kg [3]: 80%

Compound: CCOC(=O)c1cnn2c1[nH]c(=O)c1cc(C)ccc12 [Example 1A]
- inhibition in vivo at 100 mg/kg [1]: 63%

Compound: CCOC(=O)c1cnn2c1[nH]c(=O)c1ccc(C)cc12 [Example 1B]
- % Inhibition (passive cutaneous anaphylaxis) [1]: Inac.

Compound: Cn1c(=O)c2cc([N+](=O)[O-])ccc2n2ncc(C(=O)O)c12 [Example 7S]
- ED50 [1]: 37 mg/kg

Compound: CCOC(=O)c1cnn2c3ccc([N+](=O)[O-])cc3c(=O)n(C)c12 [Example 4, ethyl 4-methyl-7-nitro-4,5-dihydro-5-oxopyrazolo[1,5-a]quinazoline-3-carboxylate]
- No. Cleared/No. Tested, Amoeba ([5]; dose 100 mg./kg.): 2/4

Compound: CCOC(=O)c1cnn2c3ccc(Cl)cc3c(=O)n(C)c12 [Example 2H]
- No. Cleared/No. Tested, Amoeba ([5]; dose 100 mg./kg.): 2/4
- inhibition in vivo at 100 mg/kg [1]: 32%
